Reference: patent publication EP4574212A1, “HISTONE DEACETYLASE INHIBITORS” (Centre National de la Recherche Scientifique, priority 2023, dated 2025)
Peptide text beside a SMILES is read from it. * marks the point of attachment. X1 = Nc1ccccc1NC(=O)c1ccc(CC(=O)*)cc1

What was measured:
HDAC [1] = experiment: Fluorescence-based HDAC inhibition assay in solution using HeLa nuclear extracts; assay type: biochemical
HDAC [2] = experiment: as above
Protocol: Compound HDAC inhibition activities were determined with a fluorescence-based assay in solution, using HeLa nuclear extracts purchased from IpraCell. […] Trypsin solution was then added (0.29 µg/µl final concentration) to release AMC adduct of non-acetylated peptides. After 15 min incubation at room temperature 150 µl of absolute ethanol were added and AMC-fluorescence level was measured on a Safas Xenius spectrofluorometer (λexc./λem. = 380/460 nm).

[3] = benzamide-based multivalent HDACi, procedure of Example 8 (HeLa nuclear extracts, TosGPK(Ac)-AMC substrate)
[4] = hydroxamic acid-based multivalent HDACi, HeLa nuclear extracts, TosGPK(Ac)-AMC substrate 43 µM, 45 min at 37 °C, average of at least 2 experiments

Nc1ccccc1NC(=O)c1ccc(CNC(=O)OCc2cccnc2)cc1 [MS275, reference compound]
EC50 (HDAC [1]; [3]): 7230 ± 2070 nM

C[C@@H]1NC(=O)[C@H](CCCCNC(=O)CCCCCCC(=O)NO)NC(=O)CNC(=O)[C@@H]2CCCN2C(=O)[C@H](CCCCNC(=O)CCCCCCC(=O)NO)NC(=O)[C@H](C)NC(=O)[C@H](CCCCNC(=O)CCCCCCC(=O)NO)NC(=O)CNC(=O)[C@@H]2CCCN2C(=O)[C@H](CCCCNC(=O)CCCCCCC(=O)NO)NC1=O [MuH2120, RAFT-(methyl 8-(hydroxyamino)-8-oxooctanoate)4]
EC50 (HDAC [2]; [4]): 2840 nM

C[C@@H]1NC(=O)[C@H](CCCCNC(=O)CCCCCCC(=O)NO)NC(=O)CNC(=O)[C@@H]2CCCN2C(=O)[C@H](CCCCNC(=O)CCCCCCC(=O)NO)NC(=O)[C@H](C)NC(=O)[C@H](CCCCNC(=O)CCCCCCC(=O)NO)NC(=O)CNC(=O)[C@@H]2CCCN2C(=O)[C@H](CCCCNC(=O)CCCCCCC(=O)NO)NC1=O [MuH2121, RAFT-(methyl 8-(hydroxyamino)-8-oxooctanoate)4]
EC50 (HDAC [2]; [4]): 5760 nM

C[C@@H]1NC(=O)CNC(=O)[C@@H]2CCCN2C(=O)[C@H](CCCCNC(=O)Cc2ccc(C(=O)Nc3ccccc3N)cc2)NC(=O)[C@H](C)NC(=O)[C@H](C)NC(=O)CNC(=O)[C@@H]2CCCN2C(=O)[C@H](CCCCNC(=O)Cc2ccc(C(=O)Nc3ccccc3N)cc2)NC(=O)[C@H](C)NC1=O [MuH2224, RAFT-(4-(2-X-2-oxoethyl)-N-(2-aminophenyl)benzamide)2] (cyclo(AAK(X1)PGAAK(X1)PG))
EC50 (HDAC [2]; [3]): 7810 ± 5270 nM

Nc1ccccc1NC(=O)c1ccc(CC(=O)NCCCNC(=O)Cc2ccc(C(=O)Nc3ccccc3N)cc2)cc1 [MuH2320, 4,4'-((Propane-1,3-diylbis(azanediyl))bis(2-oxoethane-2,1-diyl))bis(N-(2-aminophenyl)benzamide)]
EC50 (HDAC [1]; [3]): 9210 ± 2550 nM

O=C(CCCCCCc1cn(CCCCCCC(=O)NO)nn1)NO [MuH2321, 7,7'-(1H-1,2,3-Triazole-1,4-diyl)bis(N-hydroxyheptanamide)]
EC50 (HDAC [1]; [4]): 230 ± 160 nM

O=C(CCCCCCC(=O)Nc1ccccc1NC(=O)CCCCCCC(=O)NO)NO [MuH2322, N^1,N^1'-(1,2-Phenylene)bis(N^8-hydroxyoctanediamide)]
EC50 (HDAC [1]; [4]): 520 ± 110 nM

O=C(CCCCCCC(=O)Nc1ccc(NC(=O)CCCCCCC(=O)NO)cc1)NO [MuH2323, N^1,N^1'-(1,4-Phenylene)bis(N8-hydroxyoctanediamide)]
EC50 (HDAC [1]; [4]): 480 ± 320 nM

O=C(CCCCCCC(=O)Nc1cccc(NC(=O)CCCCCCC(=O)NO)c1)NO [MuH2324, N^1,N^1'-(1,3-Phenylene)bis(N8-hydroxyoctanediamide)]
increase in activity compare to the SAHA (HDAC [1]; HDAC inhibition, versus monovalent inhibitor SAHA): 14 fold | EC50 (HDAC [1]; [4]): 60 ± 10 nM

O=C(CCCCCCC(=O)Nc1cc(NC(=O)CCCCCCC(=O)NO)c(NC(=O)CCCCCCC(=O)NO)cc1NC(=O)CCCCCCC(=O)NO)NO [MuH2344, N1,N1',N1",N1‴-(Benzene-1,2,4,5-tetrayl)tetrakis(N8-hydroxyoctanediamide)]
EC50 (HDAC [1]; [4]): 2250 ± 650 nM

Nc1ccccc1NC(=O)CCCCCCC(=O)Nc1cccc(NC(=O)CCCCCCC(=O)Nc2ccccc2N)c1 [MuH2345, N^1,N^1'-(1,3-Phenylene)bis(N8-(2-aminophenyl)octanediamide)]
EC50 (HDAC [1]; [3]): 31500 ± 29900 nM

RAFT-(4-(2-((5-X-5-oxopentyl)amino)-2-oxoethyl)-N-(2-aminophenyl)benzamide)4 [MuH2220]
EC50 (HDAC [2]; [3]): 1220 ± 700 nM

RAFT-(4-(2-X-2-oxoethyl)-N-(2-aminophenyl)benzamide)4 [MuH2122]
EC50 (HDAC [2]; [3]): 1590 ± 870 nM

RAFT-(4-pentyn-1-ol)4 [MuH2123, reference compound]
EC50 (µM) (HDAC [2]; [4]): Inact

RAFT-(N-(2-aminophenyl)-4-(2-(((1-X-1H-1,2,3-triazol-4-yl)methyl)amino)-2-oxoethyl) benzamide)4 [MuH2222]
EC50 (HDAC [2]; [3]): 1760 ± 890 nM

RAFT-(N^1-(4-(2-amino-2-oxoethyl)phenyl)-N^8-hydroxyoctane diamide))2 [MuH2357]
EC50 (HDAC [2]; [4]): 230 ± 70 nM
